This assay relates to amiloride-sensitive (sodium-dependent) component of nasal PD. The experiment in a line: Nasal PD measurement during perfusion of human nasal epithelium. Format: in vivo. The note with it: for average percent of maximum PD change in response to 10^−5 M-amiloride: 4 experiments, before perfusion 94% and 80%. How it is done: The method of measurement of nasal PD was an adaptation of that described by Standaert et al. (2004).
Ringer/HEPES buffer solution was prepared containing 148 mM-NaCl, 4.05 mM-KCl, 1.2 mM-CaCl2, 1.2 mM-MgCl2, 2.4 mM-K2HPO4, 0.4 mM-KH2PO4, 10 mM-HEPES, and adjusted to pH 7.4. Low chloride Ringer/HEPES buffer solution was prepared by replacing NaCl with 148 mM-Na gluconate in the Ringer solution components.
Agar electrodes were prepared with 3.7% agarose dissolved in Ringer/HEPES buffer pH 7.4. The reference electrode was placed and taped in contact with a small area on the forearm where the epidermis had been removed by gentle abrasion. A dual lumen nasal recording electrode was prepared using a lm length of soft plastic tubing 2.4 mm diameter, into which 1 mm diameter polythene tubing was inserted through the wall and along the lumen for 15 cm from one end. The 2.4 mm diameter tubing was filled with 3.7% agarose dissolved in Ringer/HEPES buffer pH 7.4. The 1 mm diameter tubing was used for perfusion of buffer solutions and drugs to the nasal epithelium. The ends of the agar electrodes were each placed in contact with a calomel half-cell in 3 M-KCl solution. Voltages were measured by connecting the calomel electrodes to a high impedance voltmeter (Keithley 617 programmable electrometer). Output from the voltmeter was recorded by connection to a Biopac MP100 data aquisition unit and PC running Acqknowledge III data acquisition software.
Nasal PD was recorded via the recording electrode placed in contact with the nasal epithelium approximately 4 cm inside the nostril. The nasal epithelium was perfused according to the following schedule and nasal PD was recorded continuously.
1. Ringer/HEPES buffer was perfused at 0.5 ml/min for 5 min, and starting baseline PD was recorded.
2. Perfusion was then switched to low chloride Ringer/HEPES buffer pH 7.4 for 30 min during which time initial hyperpolarisation of the epithelium occurred.
3. The nasal epithelium was then perfused with 10^−5 M-amiloride in low chloride Ringer/HEPES buffer pH 7.4 for 10 min. Measurement of the amiloride-sensitive (sodium-dependent) component of nasal PD was then made by measuring the difference between the average PD recorded over the 2 min before perfusion with amiloride and the average PD recorded in the period 4 to 6 min after perfusion with amiloride.
4. Amiloride was washed away from the nasal epithelium by perfusion with low chloride Ringer/HEPES buffer pH 7.4 for 30 min.
5. Steps 3 and 4 were then repeated twice more.
6. The nasal epithelium was then perfused with 3 μM 6-amidino-2-napthyl 4-guanidinobenzoate in low chloride Ringer/HEPES buffer pH 7.4 for 60 min.
7. Steps 3 and 4 were then repeated a further twice, followed by either a period of administration of amiloride (3 experiments), or a final repetition of both steps 3 and 4 (1 experiment).
Over the 5 h time course of each experiment nasal PD drifted and oscillated. […] Changes in nasal PD caused by perfusion of amiloride were calculated as the difference between the mean PD recorded in the 2 min period before perfusion with amiloride and the mean PD recorded in the plateau period 4 to 6 min after start of perfusion with amiloride. Within each experiment the change in nasal PD at each period of application of amiloride was expressed as a percentage of the maximum change observed in the experiment.

From patent US20100092402A1, “TREATMENT OF RESPIRATORY DISEASE” (Mucokinetica Ltd., priority 2007, published 2010) come the findings set out here.

In the case of `N=C(N)c1ccc2cc(OC(=O)c3ccc(N=C(N)N)cc3)ccc2c1` [6-amidino-2-napthyl 4-guanidinobenzoate], the “time following perfusion for which amiloride-sensitive component of nasal PD was reduced” value (3.10^−6 M in low chloride Ringer/HEPES buffer pH 7.4 for 60 min) is recorded as “up to 80 min”. Also, the “average percent of maximum PD change in response to 10^−5 M-amiloride” value is, setting by setting: (40 min after perfusion of 3.10^−6 M for 60 min) 29%; (80 min after perfusion of 3.10^−6 M for 60 min) 55%; (immediately following 60 min perfusion of 3.10^−6 M) 49%.
